From a compilation of properties of binary mixtures (doi:10.1007/s10953-018-0732-1)
One block for each compound: values may come before it.

Experiment: xn = mol fraction of the nth substance listed
Conditions: 101.3 kPa

viscosity (303.05 K, x1 = 0.5): 176 mPa·s
viscosity (323.05 K, x1 = 0.5): 61 mPa·s
viscosity (333.05 K, x1 = 0.5): 40.2 mPa·s
viscosity (343.05 K, x1 = 0.5): 29.5 mPa·s
Structure (SMILES): CCCC[P+](CCCC)(CCCC)CCCC.CS(=O)(=O)[O-] + c1c[nH]cn1

Structure (SMILES): c1c[nH]cn1 + CC(C)C[P+](C)(CC(C)C)CC(C)C.Cc1ccc(S(=O)(=O)[O-])cc1
viscosity (303.09 K, x2 = 0.5): 357 mPa·s
viscosity (323.07 K, x2 = 0.5): 100 mPa·s
viscosity (333.11 K, x2 = 0.5): 63 mPa·s
viscosity (343.1 K, x2 = 0.5): 43.3 mPa·s
viscosity (353.08 K, x2 = 0.5): 32.8 mPa·s

Structure (SMILES): c1c[nH]cn1 + CCCC[N+]1(C)CCCC1.O=S(=O)([N-]S(=O)(=O)C(F)(F)F)C(F)(F)F
viscosity (323.15 K, x2 = 0.5): 18.6 mPa·s
viscosity (333.15 K, x2 = 0.5): 13.5 mPa·s
viscosity (343.15 K, x2 = 0.5): 9.7 mPa·s
viscosity (353.15 K, x2 = 0.5): 7.9 mPa·s

Structure (SMILES): c1c[nH]cn1 + CCCCCC[N+]1(C)CCCC1.O=S(=O)([N-]S(=O)(=O)C(F)(F)F)C(F)(F)F
viscosity (323.15 K, x2 = 0.5): 23.8 mPa·s
viscosity (333.15 K, x2 = 0.5): 16 mPa·s
